{"source": "patent US20200138802A1", "about": "“Aggressive Lipid Lowering Therapy in Coronary Artery Disease” (Kowa Company, Ltd., priority 2018, published 2020)", "key": {"[1]": {"test": "Randomized open-label phase 4 trial of pitavastatin 4 mg/day versus 1 mg/day in Japanese patients with stable coronary artery disease", "type": "in vivo, human", "experimental": "This study was a prospective, multicenter, randomized, open-label, blinded-endpoint, physician-initiated phase 4 trial designed to investigate whether high-dose statin therapy could reduce CV events in patients with stable CAD as compared with low-dose statin therapy. We hypothesized that aggressive lipid lowering treatment with pitavastatin 4 mg/day would reduce the incidence of the composite endpoint comprised of CV death, non-fatal myocardial infarction (MI), non-fatal ischemic stroke, and unstable angina requiring emergency hospitalization. The control group received pitavastatin 1 mg/day.\nMen and women aged 20 to 80 years with clinically evident stable CAD and elevated LDL-C were eligible for this study. CAD was defined as 1) previous ACS, such as acute myocardial infarction or unstable angina; 2) a previous coronary revascularization procedure (PCI or coronary artery bypass grafting (“CABG”)); or 3) atherosclerotic CAD detected by coronary artery angiography with at least 75% stenosis in major epicardial coronary arteries (American Heart Association classification). (30) Patients with elevated LDL-C at entry were defined as (1) patients not receiving chronic lipid-lowering therapy with LDL-C≥140 mg/dL, (2) patients with LDL-C≥100 mg/dL and considered by the attending physician to need lipid-lowering therapy, or (3) patients being treated with lipid-lowering therapy.\nExclusion criteria included (1) any planned coronary revascularization procedure, (2) active malignancy, (3) contraindication for pitavastatin (hypersensitivity to pitavastatin, severe liver disease or hepatic dysfunction, concurrent cyclosporine use, or suspected or confirmed pregnancy or current breastfeeding), (4) severe congestive heart failure (ejection fraction<30% or NYHA class≥3), (5) current hemodialysis, (6) familial hypercholesterolemia, (7) current participation in another clinical trial, (8) current use of any prohibited drug (lipid-lowering drug other than pitavastatin) that could not be discontinued during the study, and (9) any other finding that would make the patient unsuitable for this study in the opinion of the investigators.\nParticipants were recruited at 733 hospitals in Japan. During screening visits, informed consent and baseline medical history were obtained, and a clinical examination and laboratory testing were performed. Blood samples were collected to determine fasting lipid levels and the patient's standard clinical profile. After discontinuation of all previous lipid-lowering therapies, all eligible patients started receiving treatment with pitavastatin 1 mg/day on an open-label basis for at least 1 month (run-in period). At the end of the run-in period (week 0), those patients with LDL-C levels below 120 mg/dL, measured by a central laboratory using Friedwald's formula, were eligible for randomization. Patients with prior ACS or coronary revascularization could be randomized beyond 3 months after the index event. Randomization was not allowed for patients with poor adherence (less than 50%) for the study drug during the run-in period or for patients with the primary endpoint events during the run-in period.\nPatients were randomized in a 1:1 ratio to either pitavastatin 4 mg or pitavastatin 1 mg once daily. Randomized treatment assignment was stratified by 5 factors: 1) institution, 2) prior statin use, 3) age (<65 or ≥65), 4) diabetes, and 5) sex. Patients were to be followed for 3 years, and study visits were scheduled at 6 months for the first visit and every year thereafter. At each visit, information on vital signs, clinical endpoints, adverse events, and concurrent medication was collected. In addition, physical examinations and electrocardiograms were performed and blood specimens were collected at 6 months and every 12 months thereafter for lipid and other laboratory tests. […]"}, "[2]": {"conditions": "4 mg of pitavastatin; cited from earlier work"}}, "data": [{"smiles": "O=C(O)C[C@H](O)C[C@H](O)/C=C/c1c(C2CC2)nc2ccccc2c1-c1ccc(F)cc1", "note": "[pitavastatin]", "values": [{"measurement": "incidence rates of individual CV events: death from any cause, myocardial infarction, and coronary revascularization results", "setting": "[1]; 1 mg and 4 mg pitavastatin groups, FIG. 8", "result": "positive"}, {"measurement": "LDL-C", "setting": "[1]; patients converted from 1 mg dose to 4 mg dose of pitavastatin, stable CAD, FIG. 2", "result": "statistically significant reduction"}, {"measurement": "HDL-C", "setting": "[1]; patients converted from 1 mg dose to 4 mg dose of pitavastatin, stable CAD, FIG. 3", "result": "numerically superior increase"}, {"measurement": "TG", "setting": "[1]; patients converted from 1 mg dose to 4 mg dose of pitavastatin, stable CAD, FIG. 4", "result": "statistically significant reduction"}, {"measurement": "hs-CGP", "setting": "[1]; patients converted from 1 mg dose to 4 mg dose of pitavastatin, stable CAD, FIG. 5", "result": "statistically significant reduction"}, {"measurement": "primary clinical endpoint (composite of CV death, MI, ischemic stroke and UA)", "setting": "[1]; patients converted from 1 mg dose to 4 mg dose of pitavastatin, stable CAD, FIG. 6", "result": "statistically significant reduction"}, {"measurement": "secondary clinical endpoint (primary endpoint+coronary revascularization)", "setting": "[1]; patients converted from 1 mg dose to 4 mg dose of pitavastatin, stable CAD, FIG. 7", "result": "statistically significant reduction"}, {"measurement": "effect of LDL-C status (≥95 mg/dL or <95 mg/dL) on primary endpoint incidence rates", "setting": "[1]; subgroup analysis, 1 mg versus 4 mg pitavastatin, FIG. 9", "result": "did not affect the results"}, {"measurement": "reduction of LDL-C from baseline", "setting": "[2]", "result": 42.9, "unit": "%"}]}]}
